Our source for the IC50 values is ChEMBL document CHEMBL1139298, “Synthesis and biological evaluation of novel 2,4,5-substituted pyrimidine derivatives for anticancer activity” (Bioorg Med Chem Lett, 2009).

In one assay the test system is Bel-7402. The experiment in a line: Cytotoxicity against human Bel7402 cells after 72 hrs by SRB assay. The assay is classed as functional, cell-based. The conditions noted are these: Bel-7402, 72 h.
Assay [1] can be described thus: Cytotoxicity against human WI38 cells after 72 hrs by SRB assay. In kind it is cell-based. As to conditions: WI-38, 72 h. (Sulforhodamine B stains cellular protein and so reports cell mass.)
In another assay the test system is Calu-3. The experiment in a line: Cytotoxicity against human Calu3 cells after 72 hrs by SRB assay. The assay is classed as functional, cell-based. As to conditions: Calu-3, 72 h.
For the next assay, the system named is SGC-7901. Nature of the assay: Cytotoxicity against human SGC7901 cells after 72 hrs by SRB assay. In kind it is functional, cell-based. The conditions noted are these: SGC-7901, 72 h.
The next assay relates to NCI-H460. The experiment in a line: Cytotoxicity against human NCI-H460 cells after 72 hrs by SRB assay. In kind it is functional, cell-based. As to conditions: NCI-H460, 72 h.
The next assay has as its system HT-29. Nature of the assay: cells. As to conditions: Homo sapiens, HT-29, 72 h.
Another assay has as its system SK-BR-3. The experiment in a line: Cytotoxicity against human SKBR3 cells after 72 hrs by SRB assay. The assay is classed as functional, cell-based. As to conditions: SK-BR-3, 72 h.

Molecules are shown by their SMILES.

Description for HT-29: Cytotoxicity against human HT-29 cells after 72 hrs by SRB assay

A word on the IC50: it is the concentration at which inhibition is half-maximal. Low readings indicate greater potency, high ones weaker potency. In the case of `Cc1ncc(-c2ccc(N)cc2)c(-c2ccccc2O)n1`, the half-inhibitory concentration (IC50) (with Bel-7402; in assay [1]) was > 10 µM in each case.

On to `Cc1ncc(-c2ccccc2F)c(-c2ccccc2O)n1`, for which the concentration for half-maximal inhibition (IC50) (with Bel-7402; in assay [1]) was > 10 µM throughout.

Regarding `Cc1ncc(-c2ccc(OC(F)(F)F)cc2)c(-c2ccccc2O)n1`, the IC50 (with Bel-7402; in assay [1]) was > 10 µM throughout.

As to `Nc1ncc(-c2ccc(OCCCOCc3ccccc3)cc2)c(-c2ccccc2O)n1`, the 50% inhibitory concentration (IC50) (in the assay with Bel-7402; in assay [1]) was > 10 µM throughout.

As to `Nc1ncc(-c2ccc(OC(F)(F)F)cc2)c(-c2ccccc2O)n1`, the IC50 (in the assay on Bel-7402; in assay [1]) was > 10 µM each time.

In the case of `Nc1ncc(-c2ccc(O)cc2)c(-c2ccccc2O)n1`, the half-inhibitory concentration (IC50) (in the assay on Bel-7402; in assay [1]) was > 10 µM each time.

With `COC(=O)c1ncc(-c2ccc(OC)cc2)c(-c2ccccc2O)n1`, the IC50 (with Bel-7402; in assay [1]) was > 10 µM throughout.

`CNC(=O)c1ncc(-c2ccc(OC)cc2)c(-c2ccccc2O)n1`: the 50% inhibitory concentration (IC50) (in the assay on Bel-7402; in assay [1]) was > 10 µM each time.

With `Cc1ncc(-c2cccc(C(F)(F)F)c2)c(-c2ccccc2O)n1`, the half-inhibitory concentration (IC50) (in the assay on Bel-7402; in assay [1]) was > 10 µM each time.

For the molecule `Cc1ncc(-c2ccc(Cl)cc2)c(-c2ccccc2O)n1`, the concentration for half-maximal inhibition (IC50) (with Bel-7402; in assay [1]) was > 10 µM each time.

Regarding `Cc1ncc(-c2ccc(NC(=O)OC(C)(C)C)cc2)c(-c2ccccc2O)n1`, the half-maximal inhibitory concentration (IC50) (in the assay with Bel-7402; in assay [1]) was > 10 µM throughout.

Consider `COc1cc(-c2cnc(C)nc2-c2ccccc2O)cc(OC)c1OC`, for which the IC50 (with Bel-7402; in assay [1]) was > 10 µM throughout.

For the molecule `Nc1ncc(-c2ccccc2F)c(-c2ccccc2O)n1`, the IC50 (in the assay with Bel-7402; in assay [1]) was > 10 µM each time.

Regarding `COc1cc(-c2cnc(N)nc2-c2ccccc2O)cc(OC)c1OC`, the IC50 (in the assay on Bel-7402; in assay [1]) was > 10 µM in each case.

As to `Nc1ncc(-c2cccc(C(F)(F)F)c2)c(-c2ccccc2O)n1`, the IC50 (in the assay with Bel-7402; in assay [1]) was > 10 µM throughout.

Consider `Nc1ncc(-c2ccc(OCCN3CCCC3)cc2)c(-c2ccccc2O)n1`, for which the IC50 (with Bel-7402; in assay [1]) was > 10 µM each time.

`CC(=O)O[C@@]12CO[C@@H]1C[C@H](O)[C@@]1(C)C(=O)[C@H](O)C3=C(C)[C@@H](OC(=O)[C@H](O)[C@@H](NC(=O)OC(C)(C)C)c4ccccc4)C[C@@](O)([C@@H](OC(=O)c4ccccc4)[C@H]21)C3(C)C` [DOCETAXEL]: the half-maximal inhibitory concentration (IC50) was 0.1 µM with Calu-3, 0.0084 µM in the assay with SGC-7901, 0.0097 µM with NCI-H460 and > 10 µM in assay [1].

Regarding `COc1cccc2c1C(=O)c1c(O)c3c(c(O)c1C2=O)C[C@@](O)(C(=O)CO)C[C@@H]3O[C@H]1C[C@H](N)[C@H](O)[C@H](C)O1` [DOXORUBICIN], the IC50 was 0.021 µM with Bel-7402, 0.018 µM with HT-29 and > 10 µM in assay [1].

For the molecule `CS(=O)(=O)CCNCc1ccc(-c2ccc3ncnc(Nc4ccc(OCc5cccc(F)c5)c(Cl)c4)c3c2)o1` [LAPATINIB], the IC50 in the assay with SK-BR-3 is 0.017 µM; in assay [1], > 10 µM.
